Data as given in patent US11419843B2, “Small molecule BCL-2 functional converters as cancer therapeutics” (Oregon State University, priority 2016, dated 2022).
Entries after “also recorded” stand apart in the source; their conditions may differ.

Legend:
Format in all cases: cell-based, human
[1] = test system: Bcl-2 low and high expressing Jurkat lymphoma cells (Jurkat/Vector, Jurkat/Bcl-2); experiment: Cell viability in Bcl-2 low and high expressing Jurkat cells; conditions: for Bcl-2 dependent effects in Jurkat Lymphoma cells: Bcl-2 low and high expressing Jurkat lymphoma cells treated for 72 hours with various concentrations; for minimal effective concentration: Homo sapiens, Jurkat lymphoma cells, 72 hours, n/d means no reduction was detected at concentrations tested, read-out: Lowest effective dose (minimal effective concentration that induced Bcl-2-dependent reduction in cell viability); for Effect of Bcl-2 expression on Jurkat cells exposed to cancer therapeutics: Jurkat cells with high and low expression of Bcl-2 (FIG. 9G)
[2] = test system: MDA-MB-468 parental and derived paclitaxel or doxorubicin resistant cells; experiment: Viability of MDA-MB-468 parental and derived resistant cells; conditions: 72 hours
Protocol: Percentage viability relative to vehicle treatment. Representative of three independent assays in triplicate.
Percentage viability relative to vehicle treatment.
Percentage viability relative to vehicle treatment. Representative of three independent assays conducted in triplicate.
(§1) Cells of interest were plated at 2000 cells per well in 96-well black tissue culture plate and allowed to adhere to the plate overnight. Viability assays were performed using 10% serum medium unless otherwise stated. Drugs were diluted in supplemented tissue culture medium and added at increasing concentrations, with DMSO as a vehicle control. Cells were then incubated for either 48 hour or 72 hours in presence of the compound, Promega Titer Glo was added to the wells at the assay end point according to manufacturer's protocol. Luminescence was measured using Tropix TR717 Microplate luminometer. Percentage of viable cells is relative to vehicle (100%). As a complementary viability assay, eBioscience Fixable Viability Dye eFluor 660(65-0864) was used to stain dead cells and analyzed using flow cytometry.

[3] = test system: H460 parental and derived paclitaxel resistant cells; experiment: Viability of H460 parental and paclitaxel resistant cells
Protocol: Percentage viability relative to vehicle treatment was calculated. Representative of three independent assays conducted in triplicate.
FIG. […] Percentage viability relative to vehicle treatment. Representative of three independent assays conducted in triplicate.
Representative of three independent assays conducted in triplicate.
Cell lines were obtained from ATCC and maintained according to manufacturer's instructions. The human lung cancer cell line NCI-H460, H69AR (ATCC) were cultured in RPMI medium (Corning) containing 10% FBS. The human breast cancer cell line MDA-MB-231 was cultured in DMEM medium (Corning) containing 10% FBS. All cell lines were maintained at 5% CO2 and 37° C. Paclitaxel resistant H460 cells were derived by treating cells once a week over 6 weeks, initially with 1 nM paclitaxel and then increasing dose incrementally up to 100 nM. Once resistance was confirmed, paclitaxel was withdrawn from the cells. Resistance to paclitaxel was maintained without presence of paclitaxel measured up to 2 months. A parental line was maintained for a similar number of passages as the resistant line. All experiments were performed using cells that had not been treated with paclitaxel in at least three passages.
as §1, with “Cells were then incubated for either 48 hour or 72 hours in presence of the compound, Promega Titer Glo was added to the wells at the assay end point according to manufacturer's protocol.” left out

[4] = test system: MDA-MB-231/Vector and MDA-MB-231/Bcl-2 cells; experiment: Viability screening assay in MDA-MB-231 cells with high and low Bcl-2 (CellTiter Glo); conditions: for Bcl-2 selective reduction in viability, MDA-MB-231/Bcl-2 vs MDA-MB-231/Vector: 10 μM, 24 h, 10% serum
Protocol: In one example, a triple negative breast cancer cell line, MDA-MB-231, was used for screening these libraries. […] At the end of the assay, cell viability was determined using the cell titer Glo assay. […] A hit was defined as a compound inducing more than 20% reduction in viability of MDA-MB-231/Bcl-2 cells, compared to vector controls (MDA-MB-231/Vector). In the next step these shortlisted small molecules were tested for their ability to convert the conformation of Bcl-2 into a pro-apoptotic one.
To screen for Bcl-2 selective compounds, MDA-MB-231 cells (MDA-MB-231/Vector and MDA-MB-231/Bcl-2) were plated at 4000 cells per well in a 96 well black opaque plate. The day after plating the cells, treatment from the library plates was done so as to add 1 μL of the compound into the cells, resulting in 10 μM concentration. For non-specific […], 25 nM of staurosporin was used. […] Post treatment viability was assessed by CellTiter Glo Cell Viability assay (Promega Inc., Madison, Wis.) as per manufacturer instructions.
Viability for test compounds in each cell line (MDA-MB-231/Vector and MDA-MB-231/Bcl-2) was normalized to their respective vehicle treatments. Compounds that had at least 20% less viability in the MDA-MB-231/Bcl-2 cell line than the MDA-MB-231/Vector cell line were selected as initial hits and shortlisted for revalidation. Revalidated compounds were reordered for further testing and characterization. All data analyses were performed using Microsoft Excel.

[5] = test system: H460 parental and resistant cells; experiment: Colony formation (2D clonogenic, 3D soft agar) of H460 parental and resistant cells; conditions: 10 nM paclitaxel, continuously for 14 days
Source text: Colony forming ability (%) relative to vehicle treatment. Representative of three independent conducted assays in triplicate.

[6] = test system: H460 parental and resistant cells; experiment: Annexin-V apoptosis assay in H460 parental and resistant cells; conditions: 10 nM paclitaxel, 48 hours
Protocol: FIG. 25E is the results of Annexin-V apoptosis assay in H460 cells treated for 48 hours with vehicle or paclitaxel 10 nM, quantification right panel.
Cells were seeded into 6 well tissue culture plates to give approximately 50% confluence and allowed to attach overnight. The cells were then treated for a period of time indicated in figure legend with the appropriate compound at various concentrations (see figure legends). An Annexin V-conjugate PerCP-eFluor 710 apoptosis detection kit was used as described by the manufacturer's protocol (eBioscience 88-8008). Harvesting of cells included collection of floating and attached cells following trypsinization. Data were acquired using an CytoFLEX S flow cytometer (Beckman Coulter, Brea, Calif.) and 10,000 events on the PC5.5 channel were analyzed using CytExpert software (Beckman Coulter). For Nur77 GFP tagged annexin V analysis, GFP positive population were selected and then Annexin V+population was determined. For each sample, 10,000 GFP+ events were collected. Annexin V positive cell population was considered to be the apoptotic population, and the percent of annexin V positive cell population was used to determine the extent of apoptosis.

Molecule | Bcl-2 dependent effects in Jurkat Lymphoma cells [1] | minimal effective concentration [1] [µM] | also measured
CC(Nc1ccc(C(=O)N[C@@H](CCC(=O)O)C(=O)O)cc1)c1cnc2nc(N)nc(O)c2n1 (some centres unmarked) [Compound 4] | No | – | –
Nc1nc(N)c2nc(CNc3ccc(C(=O)N[C@@H](CC(=O)O)C(=O)O)cc3)cnc2n1 [Compound 3] | Yes | 10 | –
Nc1nc(N)c2nc(CC3CCCc4cc(C(=O)N[C@@H](CCC(=O)O)C(=O)O)ccc43)cnc2n1 (some centres unmarked) [Compound 10] | Yes | 0.1 | –
CN(Cc1cnc2nc(N)nc(N)c2n1)c1ccc(C(=O)N[C@@H](CCC(=O)O)C(=O)O)cc1F [Compound 5] | Yes | 0.01 | –
O=c1[nH]cc(F)c(=O)[nH]1 [5-fluoro uracil, reference compound] | – | – | Cross-resistance of MDA-MB-468 paclitaxel-resistant line [2]: cross-resistant; Effect of Bcl-2 expression on Jurkat cells exposed to cancer therapeutics [1]: Bcl-2 expression protected Jurkat cells
COc1ccc([N+](=O)[O-])cc1CSc1nc2sc3c(c2c(=O)n1-c1ccccc1)CCCC3 [BFC1111, 2-[(2-methoxy-5-nitrobenzyl)thio]-3-phenyl-5,6,7,8-tetrahydro[1] benzothieno[2,3-d]pyrimidin-4(3H)-one] | – | – | Viability of H460 resistant vs parental line ([3]; 72 hours): reduced viability of resistant line preferentially; Bcl-2 selective reduction in viability, MDA-MB-231/Bcl-2 vs MDA-MB-231/Vector ([4]; listed as BFC1110-A): good Bcl-2 dependent effects in MDA-MB-231 cells; also recorded: comparable Bcl-2 selective induction of cell death as the parent BFC1110
CC(=O)O[C@H]1C(=O)[C@@]2(C)[C@H]([C@H](OC(=O)c3ccccc3)[C@]3(O)C[C@H](OC(=O)[C@H](O)[C@@H](NC(=O)c4ccccc4)c4ccccc4)C(C)=C1C3(C)C)[C@]1(OC(C)=O)CO[C@@H]1C[C@@H]2O [paclitaxel, reference compound] | – | – | Reduction of viability of H460 parental cells ([3]; paclitaxel, 72 hours): 90%; Viability of H460 paclitaxel resistant line ([3]; paclitaxel, 72 hours): unaffected; Viability of MDA-MB-468 parental and paclitaxel resistant lines ([2]; paclitaxel): derived resistant line viability was unaffected by 50 nM, however parental line was sensitive; Viability of MDA-MB-231 cells expressing pcDNA vector or Bcl-2 ([4]; paclitaxel 10 nM): reduced viability of MDA-MB-231 cells transfected with pcDNA vector, while Bcl-2 transfected MDA-MB-231 cells were partially resistant; Colony formation in 2D and 3D soft agar assays, H460 parental and resistant [5]: inhibited the parental cells ability to form colonies in 2D and 3D soft agar assays, while resistant lines tumorigenicity was unchanged; Induction of apoptosis (Annexin V), H460 resistant vs parental [6]: minimal induction of apoptosis in the derived H460 resistant line compared to parental sensitive line
Nc1nc(N)c2nc3c(nc2n1)C(=O)N(c1ccc(C(=O)O)cc1)C3 [Compound 12] | No | – | –
CS(=O)(=O)CCNCc1ccc(-c2ccc3ncnc(Nc4ccc(OCc5cccc(F)c5)c(Cl)c4)c3c2)o1 [lapatinib, reference compound] | – | – | Effect of Bcl-2 expression on Jurkat cells exposed to cancer therapeutics [1]: Bcl-2 expression protected Jurkat cells
C=CCN(Cc1cnc2nc(N)nc(N)c2n1)c1ccc(C(=O)N[C@@H](CCC(=O)O)C(=O)O)cc1 [Compound 8] | Yes | 0.01 | –
Nc1ccn([C@@H]2O[C@H](CO)[C@@H](O)C2(F)F)c(=O)n1 [gemcitabine, reference compound] | – | – | Effect of Bcl-2 expression on Jurkat cells exposed to cancer therapeutics [1]: Bcl-2 expression protected Jurkat cells
CN(Cc1cnc2nc(N)nc(N)c2n1)c1cc(Cl)c(C(=O)N[C@@H](CCC(=O)O)C(=O)O)c(Cl)c1 [Compound 9] | Yes | 1 | –
Cc1cc(C(=O)O)cc(C)c1N(C)Cc1cnc2nc(N)nc(N)c2n1 [Compound 7] | No | – | –
COc1cccc2c1C(=O)c1c(O)c3c(c(O)c1C2=O)C[C@@](O)(C(=O)CO)C[C@@H]3O[C@H]1C[C@H](N)[C@H](O)[C@H](C)O1 [doxorubicin, reference compound] | – | – | Susceptibility of H460 paclitaxel resistant line (cross resistance) ([3]; viability assays and colony formation assays): paclitaxel resistant line was also less susceptible to doxorubicin treatment; Cross-resistance of MDA-MB-468 paclitaxel-resistant line [2]: cross-resistant; Effect of Bcl-2 expression on Jurkat cells exposed to cancer therapeutics [1]: Bcl-2 expression protected Jurkat cells
2-Iodo acetamide [Iodoacetamide, reference compound] | – | – | Bcl-2 selective reduction in viability, MDA-MB-231/Bcl-2 vs MDA-MB-231/Vector [4]: selectively induce more cell death in high-Bcl-2 expressing MDA-MB-231 cells
O=P1(N(CCCl)CCCl)NCCCO1 (centres unmarked) [cyclophosphamide, reference compound] | – | – | Effect of Bcl-2 expression on Jurkat cells exposed to cancer therapeutics [1]: Bcl-2 expression protected Jurkat cells
CN(Cc1cnc2nc(N)nc(N)c2n1)c1c(F)cc(C(=O)N[C@@H](CCC(=O)O)C(=O)O)cc1F [Compound 6] | Yes | 0.01 | –
CN(Cc1cnc2nc(N)nc(N)c2n1)c1c(Cl)cc(C(=O)N[C@@H](CCC(=O)O)C(=O)O)cc1Cl [Compound 2] | Yes | 0.001 | –
Nc1nc(N)c2nc(CNc3ccc(C(=O)N[C@@H](CCC(=O)O)C(=O)O)cc3)cnc2n1 [Compound 1] | Yes | 0.01 | –
CN(Cc1cnc2nc(N)nc(N)c2n1)c1ccc(C(=O)N[C@@H](CCC(=O)O)C(=O)O)c2ccccc12 [Compound 11] | Yes | 0.001 | –
